# Reference: patent publication US11006631B2, “Substituted pyrimidinyloxy pyridine derivatives as herbicides” (FMC Corporation, priority 2015, dated 2021)
# Assays:
# Format in all cases: in vivo
# [1] = tested on: foxtail, giant (giant foxtail, Setaria faberii); experiment: Test A postemergence, foxtail, giant; conditions: 0 to 100 scale
# Description: (§1) Seeds of plant species selected from bamyardgrass (Echinochloa crus-galli), kochia (Kochia scoparia), ragweed (common ragweed, Ambrosia elatior), ryegrass, Italian (Italian ryegrass, Lolium multiflorum), foxtail, giant (giant foxtail, Setaria faberii), pigweed (Amaranthus retroflexus), crabgrass, large (large crabgrass, Digitaria sanguinalis), momingglory (Ipomoea spp.), velvetleaf (Abutilon theophrasti), wheat (Triticum aestivum), and corn (Zea mays) were planted into a blend of loam soil and sand and treated preemergence with a directed soil spray using test chemicals formulated in a non-phytotoxic solvent mixture which included a surfactant. At the same time, plants selected from these crop and weed species and also blackgrass (Alopecurus myosuroides), and galium (catchweed bedstraw, Galium aparine) were planted in pots containing the same blend of loam soil and sand and treated with postemergence applications of test chemicals formulated in the same manner. Plants ranged in height from 2 to 10 cm and were in the one- to two-leaf stage for the postemergence treatment. Treated plants and untreated controls were maintained in a greenhouse for approximately 10 days, after which time all treated plants were compared to untreated controls and visually evaluated for injury. Plant response ratings, summarized in Table A, are based on a 0 to 100 scale where 0 is no effect and 100 is complete control. A dash (-) response means no test result.
# [2] = tested on: crabgrass, large (large crabgrass, Digitaria sanguinalis); experiment: Test A postemergence, crabgrass, large; conditions: 0 to 100 scale
# Description: as §1
# [3] = tested on: velvetleaf (Abutilon theophrasti); experiment: Test A postemergence, velvetleaf; conditions: 0 to 100 scale
# Description: as §1
# [4] = tested on: corn (Zea mays); experiment: Test A postemergence, corn; conditions: 0 to 100 scale
# Description: as §1
# [5] = tested on: wheat (Triticum aestivum); experiment: Test A preemergence, wheat; conditions: 0 to 100 scale
# Description: as §1
# [6] = tested on: sedge, umbrella (small-flower umbrella sedge, Cyperus difformis); experiment: Test B flooded paddy test, sedge, umbrella; conditions: Flood, 250 g ai/ha; scale of 0 to 100
# Protocol: (§2) Plant species in the flooded paddy test selected from rice (Oryza sativa), sedge, umbrella (small-flower umbrella sedge, Cyperus difformis), ducksalad (Heteranthera limosa), and barnyardgrass (Echinochloa crus-galli) were grown to the 2-leaf stage for testing. At time of treatment, test pots were flooded to 3 cm above the soil surface, treated by application of test compounds directly to the paddy water, and then maintained at that water depth for the duration of the test. Treated plants and controls were maintained in a greenhouse for 13 to 15 days, after which time all species were compared to controls and visually evaluated. Plant response ratings, summarized in Table B, are based on a scale of 0 to 100 where 0 is no effect and 100 is complete control. A dash (-) response means no test result.
# [7] = tested on: ducksalad (Heteranthera limosa); experiment: Test B flooded paddy test, ducksalad; conditions: Flood, 250 g ai/ha; scale of 0 to 100
# Protocol: as §2
# [8] = tested on: pigweed (Amaranthus retroflexus); experiment: Test A postemergence, pigweed; conditions: 0 to 100 scale
# Description: as §1
# [9] = tested on: rice (Oryza sativa); experiment: Test B flooded paddy test, rice; conditions: Flood, 250 g ai/ha; scale of 0 to 100
# Protocol: as §2
# [10] = tested on: wheat (Triticum aestivum); experiment: Test A postemergence, wheat; conditions: 0 to 100 scale
# Description: as §1
# [11] = tested on: crabgrass, large (large crabgrass, Digitaria sanguinalis); experiment: Test A preemergence, crabgrass, large; conditions: 0 to 100 scale
# Description: as §1
# [12] = tested on: velvetleaf (Abutilon theophrasti); experiment: Test A preemergence, velvetleaf; conditions: 0 to 100 scale
# Description: as §1
# [13] = tested on: foxtail, giant (giant foxtail, Setaria faberii); experiment: Test A preemergence, foxtail, giant; conditions: 0 to 100 scale
# Description: as §1
# [14] = tested on: morningglory (Ipomoea spp.); experiment: Test A postemergence, morningglory; conditions: 0 to 100 scale
# Description: as §1
# [15] = tested on: barnyardgrass (Echinochloa crus-galli); experiment: Test A postemergence, barnyardgrass; conditions: 0 to 100 scale
# Description: as §1
# [16] = tested on: pigweed (Amaranthus retroflexus); experiment: Test A preemergence, pigweed; conditions: 0 to 100 scale
# Description: as §1
# [17] = tested on: morningglory (Ipomoea spp.); experiment: Test A preemergence, morningglory; conditions: 0 to 100 scale
# Description: as §1
# [18] = tested on: barnyardgrass (Echinochloa crus-galli); experiment: Test A preemergence, barnyardgrass; conditions: 0 to 100 scale
# Description: as §1
# [19] = tested on: corn (Zea mays); experiment: Test A preemergence, corn; conditions: 0 to 100 scale
# Description: as §1
# [20] = tested on: barnyardgrass (Echinochloa crus-galli); experiment: Test B flooded paddy test, barnyardgrass; conditions: Flood, 250 g ai/ha; scale of 0 to 100
# Protocol: as §2
compound,measurement,setting,value
Cc1cnn(-c2ncccc2Oc2ncc(Cl)cn2)c1 [Compound 3],"Plant response rating, Foxtail, Giant",[1]; 125 g ai/ha,0
same,"Plant response rating, Foxtail, Giant",[1]; 500 g ai/ha,10
same,"Plant response rating, Crabgrass, Large",[2]; 125 g ai/ha,10
same,"Plant response rating, Crabgrass, Large",[2]; 500 g ai/ha,10
same,"Plant response rating, Velvetleaf",[3]; 125 g ai/ha,10
same,"Plant response rating, Velvetleaf",[3]; 500 g ai/ha,20
same,"Plant response rating, Corn",[4]; 125 g ai/ha,0
same,"Plant response rating, Corn",[4]; 500 g ai/ha,10
same,"Plant response rating, Wheat",[5]; 125 g ai/ha,0
same,"Plant response rating, Wheat",[5]; 500 g ai/ha,0
same,"Plant response rating, Sedge, Umbrella",[6],60
same,"Plant response rating, Ducksalad",[7],0
same,"Plant response rating, Pigweed",[8]; 125 g ai/ha,10
same,"Plant response rating, Pigweed",[8]; 500 g ai/ha,40
same,"Plant response rating, Rice",[9],0
same,"Plant response rating, Wheat",[10]; 125 g ai/ha,10
same,"Plant response rating, Wheat",[10]; 500 g ai/ha,10
same,"Plant response rating, Crabgrass, Large",[11]; 125 g ai/ha,0
same,"Plant response rating, Crabgrass, Large",[11]; 500 g ai/ha,0
same,"Plant response rating, Velvetleaf",[12]; 125 g ai/ha,0
same,"Plant response rating, Velvetleaf",[12]; 500 g ai/ha,0
same,"Plant response rating, Foxtail, Giant",[13]; 125 g ai/ha,0
same,"Plant response rating, Foxtail, Giant",[13]; 500 g ai/ha,0
same,"Plant response rating, Morningglory",[14]; 125 g ai/ha,20
same,"Plant response rating, Morningglory",[14]; 500 g ai/ha,30
same,"Plant response rating, Barnyardgrass",[15]; 125 g ai/ha,0
same,"Plant response rating, Barnyardgrass",[15]; 500 g ai/ha,10
same,"Plant response rating, Pigweed",[16]; 125 g ai/ha,0
same,"Plant response rating, Pigweed",[16]; 500 g ai/ha,10
same,"Plant response rating, Morningglory",[17]; 125 g ai/ha,0
same,"Plant response rating, Morningglory",[17]; 500 g ai/ha,0
same,"Plant response rating, Barnyardgrass",[18]; 125 g ai/ha,0
same,"Plant response rating, Barnyardgrass",[18]; 500 g ai/ha,0
same,"Plant response rating, Corn",[19]; 125 g ai/ha,0
same,"Plant response rating, Corn",[19]; 500 g ai/ha,0
same,"Plant response rating, Barnyardgrass",[20],0
Cc1ccc(Oc2ncc(Cl)cn2)c(-n2cc(Br)cn2)n1 [Compound 10],"Plant response rating, Foxtail, Giant",[1]; 125 g ai/ha,0
same,"Plant response rating, Foxtail, Giant",[1]; 500 g ai/ha,0
same,"Plant response rating, Crabgrass, Large",[2]; 125 g ai/ha,0
same,"Plant response rating, Crabgrass, Large",[2]; 500 g ai/ha,10
same,"Plant response rating, Velvetleaf",[3]; 125 g ai/ha,50
same,"Plant response rating, Velvetleaf",[3]; 500 g ai/ha,80
same,"Plant response rating, Corn",[4]; 125 g ai/ha,0
same,"Plant response rating, Corn",[4]; 500 g ai/ha,0
same,"Plant response rating, Wheat",[5]; 125 g ai/ha,0
same,"Plant response rating, Wheat",[5]; 500 g ai/ha,0
same,"Plant response rating, Sedge, Umbrella",[6],0
same,"Plant response rating, Ducksalad",[7],0
same,"Plant response rating, Pigweed",[8]; 125 g ai/ha,10
same,"Plant response rating, Pigweed",[8]; 500 g ai/ha,50
same,"Plant response rating, Rice",[9],0
same,"Plant response rating, Wheat",[10]; 125 g ai/ha,0
same,"Plant response rating, Wheat",[10]; 500 g ai/ha,0
same,"Plant response rating, Crabgrass, Large",[11]; 125 g ai/ha,0
same,"Plant response rating, Crabgrass, Large",[11]; 500 g ai/ha,50
same,"Plant response rating, Velvetleaf",[12]; 125 g ai/ha,0
same,"Plant response rating, Velvetleaf",[12]; 500 g ai/ha,20
same,"Plant response rating, Foxtail, Giant",[13]; 125 g ai/ha,0
same,"Plant response rating, Foxtail, Giant",[13]; 500 g ai/ha,20
same,"Plant response rating, Morningglory",[14]; 125 g ai/ha,0
same,"Plant response rating, Morningglory",[14]; 500 g ai/ha,10
same,"Plant response rating, Barnyardgrass",[15]; 125 g ai/ha,0
same,"Plant response rating, Barnyardgrass",[15]; 500 g ai/ha,0
same,"Plant response rating, Pigweed",[16]; 125 g ai/ha,0
same,"Plant response rating, Pigweed",[16]; 500 g ai/ha,40
same,"Plant response rating, Morningglory",[17]; 125 g ai/ha,0
same,"Plant response rating, Morningglory",[17]; 500 g ai/ha,10
same,"Plant response rating, Barnyardgrass",[18]; 125 g ai/ha,0
same,"Plant response rating, Barnyardgrass",[18]; 500 g ai/ha,0
same,"Plant response rating, Corn",[19]; 125 g ai/ha,0
same,"Plant response rating, Corn",[19]; 500 g ai/ha,0
same,"Plant response rating, Barnyardgrass",[20],0
